According to ChEMBL document CHEMBL1201862, “PubChem BioAssay data set” (2004):
Active and inactive are the calls of the source.

Assays:
[1] = inhibitors of Bluetongue virus cytopathic effect, confirmation, arbovirus, BSR cells (AID 1250); format: functional;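 note: protection from viral cytopathic effect measured as cell viability by ATP luminescence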
Kallikrein-7 = Kallikrein-7 (Homo sapiens, UniProt P49862); assay: Fluorescence Intensity-based biochemical primary high throughput dose response assay to identify activators of kallikrein-7 (K7) zymogen.
Chain of Kallikrein-7 (P49862 whole entry): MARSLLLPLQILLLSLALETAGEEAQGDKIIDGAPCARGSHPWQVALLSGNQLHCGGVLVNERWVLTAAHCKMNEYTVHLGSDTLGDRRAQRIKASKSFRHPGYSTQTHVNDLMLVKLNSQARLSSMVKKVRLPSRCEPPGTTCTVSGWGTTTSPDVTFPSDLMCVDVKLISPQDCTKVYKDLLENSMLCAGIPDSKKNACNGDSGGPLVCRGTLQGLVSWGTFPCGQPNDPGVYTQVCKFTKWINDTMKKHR

[2] = A Cell Based Assay for the Identification of Probe candidate Compounds with Anti- Venezuelan Equine Encephalitis virus. [Related pubchem assays: 2409, 2419, 1621, 2238, 2405, 2024, 2065, 2402, 2414, 1635, 1650, 2244 ]; format: functional
Vero = assay: cytotoxicity of synthesized analogs in Vero cells, SAR follow-up, cytotoxicity control for West Nile virus antiviral project, cell-based, set II (AID 2402); format: functional; conditions: Chlorocebus sabaeus
[3] = molecular target: Sphingosine 1-phosphate receptor 1 (Homo sapiens, UniProt P21453); format: functional;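 note: Tango beta-arrestin reporter U2OS cells stimulated with S1P near its EC80; inhibitor potency meaning antagonism of receptor activation by the natural agonist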
Chain of Sphingosine 1-phosphate receptor 1 (P21453 whole entry): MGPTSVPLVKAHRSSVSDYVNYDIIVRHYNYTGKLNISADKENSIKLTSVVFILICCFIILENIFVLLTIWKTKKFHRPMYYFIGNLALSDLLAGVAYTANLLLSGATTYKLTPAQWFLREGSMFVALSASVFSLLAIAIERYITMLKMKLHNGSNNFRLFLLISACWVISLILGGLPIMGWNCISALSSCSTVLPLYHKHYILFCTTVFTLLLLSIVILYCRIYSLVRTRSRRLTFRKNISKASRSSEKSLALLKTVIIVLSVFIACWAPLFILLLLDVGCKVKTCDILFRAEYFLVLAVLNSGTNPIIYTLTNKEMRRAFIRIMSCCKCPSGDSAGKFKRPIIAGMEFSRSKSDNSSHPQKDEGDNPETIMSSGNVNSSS

[4] = molecular target: T1, Microphthalmia-associated transcription factor (Homo sapiens, UniProt O75030); assay: TRPM1 promoter luciferase signal decrease, dose response, MITF inhibitor project, cell-based, SK-MEL-5, cherry-picked, set 3 (AID 493073); format: functional
T1 sequence (O75030 whole entry): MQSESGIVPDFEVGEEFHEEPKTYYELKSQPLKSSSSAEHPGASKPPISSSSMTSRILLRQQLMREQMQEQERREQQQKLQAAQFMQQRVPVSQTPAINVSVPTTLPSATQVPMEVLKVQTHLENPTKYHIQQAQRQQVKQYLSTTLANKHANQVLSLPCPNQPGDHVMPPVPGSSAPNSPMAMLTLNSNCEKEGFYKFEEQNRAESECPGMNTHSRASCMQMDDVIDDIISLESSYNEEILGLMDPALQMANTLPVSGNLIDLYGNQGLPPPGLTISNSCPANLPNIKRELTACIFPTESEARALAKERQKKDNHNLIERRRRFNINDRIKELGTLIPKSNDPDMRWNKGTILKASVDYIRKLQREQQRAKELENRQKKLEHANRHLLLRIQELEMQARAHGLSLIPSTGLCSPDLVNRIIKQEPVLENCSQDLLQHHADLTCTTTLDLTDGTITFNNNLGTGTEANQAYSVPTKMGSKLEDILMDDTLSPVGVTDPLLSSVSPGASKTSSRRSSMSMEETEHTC

[5] = molecular target: T2, Heat shock factor protein 1 (Mus musculus, UniProt P38532); assay: HSF1 potentiators in luciferase reporter cells, confirmation, cell-based, NIH3T3, luminescence, dose retest (AID 435004); format: functional;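 note: stress induced by proteasome inhibitor MG132 added 30 min after compound; luciferase reporter driven by HSF1 response element in NIH3T3 cells; actives raise luminescence as potentiators of the MG132 stress response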
T2 sequence (P38532 whole entry): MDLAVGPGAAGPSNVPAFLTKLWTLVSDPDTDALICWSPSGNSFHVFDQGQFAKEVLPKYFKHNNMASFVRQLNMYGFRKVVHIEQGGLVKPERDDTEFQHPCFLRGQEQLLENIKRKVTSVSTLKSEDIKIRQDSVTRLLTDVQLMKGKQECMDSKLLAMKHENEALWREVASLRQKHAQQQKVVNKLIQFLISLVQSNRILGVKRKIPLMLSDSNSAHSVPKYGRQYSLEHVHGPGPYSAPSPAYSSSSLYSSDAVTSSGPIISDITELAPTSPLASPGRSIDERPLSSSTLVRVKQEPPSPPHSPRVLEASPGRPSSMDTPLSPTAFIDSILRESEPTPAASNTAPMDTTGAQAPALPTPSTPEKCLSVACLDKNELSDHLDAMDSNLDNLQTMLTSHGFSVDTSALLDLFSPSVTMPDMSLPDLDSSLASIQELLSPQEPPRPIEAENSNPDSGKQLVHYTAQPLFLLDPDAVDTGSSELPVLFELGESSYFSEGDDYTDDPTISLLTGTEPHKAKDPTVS

[6] = molecular target: Sphingosine 1-phosphate receptor 4 (Homo sapiens, UniProt O95977); assay: Fluorescence dose response cell-based high throughput screening assay for antagonists of the Sphingosine 1-Phosphate Receptor 4 (S1P4). [Related pubchem assays: 1524 (Confirmation in triplicates.), 1510 (Primary screen.)]; format: functional
HeLa = assay: Cytotoxicity counterscreen assay for transcriptional activators of heat shock protein 70 (Hsp70). [Related pubchem assays: 1203, 1252 ]; format: functional; conditions: Homo sapiens
Paired box protein Pax-8 = Paired box protein Pax-8 (Homo sapiens, UniProt Q06710); assay: inhibitors of PAX8-driven TPO luciferase reporter, dose response, RMG-I cells, cherry-pick (AID 687027); format: functional, cell-based;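 note: luciferase reporter driven by Pax8 target thyroperoxidase promoter measured by SteadyGlo luminescence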
[7] = molecular target: T3, Heat shock 70 kDa protein 1A (Homo sapiens, UniProt P0DMV8); assay: Hsp70 inhibitors, biochemical, TR-FRET (AID 786)
T3 sequence (P0DMV8 whole entry): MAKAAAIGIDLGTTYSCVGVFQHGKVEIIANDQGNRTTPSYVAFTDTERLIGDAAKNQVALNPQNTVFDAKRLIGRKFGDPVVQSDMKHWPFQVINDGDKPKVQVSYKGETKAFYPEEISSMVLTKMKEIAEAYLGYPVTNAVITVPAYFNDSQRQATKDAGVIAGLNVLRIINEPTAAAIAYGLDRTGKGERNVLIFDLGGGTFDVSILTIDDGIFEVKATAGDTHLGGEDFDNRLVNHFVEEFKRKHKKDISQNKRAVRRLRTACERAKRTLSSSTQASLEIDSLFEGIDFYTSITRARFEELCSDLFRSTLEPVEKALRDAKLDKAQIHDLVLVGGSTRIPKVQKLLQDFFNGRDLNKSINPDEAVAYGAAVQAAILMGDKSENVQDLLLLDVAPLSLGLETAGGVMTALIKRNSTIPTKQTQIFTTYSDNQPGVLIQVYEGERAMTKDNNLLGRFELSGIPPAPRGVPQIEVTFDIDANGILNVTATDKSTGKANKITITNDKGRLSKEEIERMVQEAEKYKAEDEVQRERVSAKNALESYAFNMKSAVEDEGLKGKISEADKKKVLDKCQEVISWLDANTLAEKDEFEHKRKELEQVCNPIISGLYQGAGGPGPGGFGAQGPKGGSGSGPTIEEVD

[8] = molecular target: T3, Heat shock 70 kDa protein 1A; assay: Hsp70 inhibitors, probe displacement, primary screen, biochemical, fluorescence polarization (AID 583)
[9] = molecular target: Mothers against decapentaplegic homolog 3 (Homo sapiens, UniProt P84022); assay: Smad3 binding inhibitors, lysate ELISA, dose response, cell lysate, secondary confirmation, chemiluminescent ELISA, HEK293 lysate (AID 1058); format: functional
Estrogen receptor = molecular target: T4, Estrogen receptor (Homo sapiens, UniProt P03372); assay: ERα–SRC-3 coactivator interaction inhibitors, confirmation, orthogonal assay, biochemical, ELISA, streptavidin-HRP readout (AID 1079)
T4 sequence (P03372 whole entry): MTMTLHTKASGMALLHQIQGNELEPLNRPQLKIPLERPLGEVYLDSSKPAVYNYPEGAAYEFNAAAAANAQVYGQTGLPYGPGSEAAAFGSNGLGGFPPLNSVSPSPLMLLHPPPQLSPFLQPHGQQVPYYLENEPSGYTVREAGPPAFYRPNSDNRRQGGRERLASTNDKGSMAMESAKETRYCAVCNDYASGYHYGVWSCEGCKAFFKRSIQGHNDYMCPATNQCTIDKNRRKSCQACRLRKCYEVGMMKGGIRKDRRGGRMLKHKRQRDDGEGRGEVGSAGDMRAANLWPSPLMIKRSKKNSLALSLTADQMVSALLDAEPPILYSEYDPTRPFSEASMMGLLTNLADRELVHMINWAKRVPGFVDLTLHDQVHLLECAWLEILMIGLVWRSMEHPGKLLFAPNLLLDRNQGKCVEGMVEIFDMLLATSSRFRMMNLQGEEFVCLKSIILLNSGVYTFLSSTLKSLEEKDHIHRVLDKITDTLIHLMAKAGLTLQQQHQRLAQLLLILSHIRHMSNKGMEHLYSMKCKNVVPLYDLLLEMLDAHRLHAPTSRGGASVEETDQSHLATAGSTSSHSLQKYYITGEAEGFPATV

[10] = molecular target: T5, Dual specificity protein phosphatase 6 (Rattus norvegicus, UniProt Q64346)
T5 sequence (Q64346 whole entry): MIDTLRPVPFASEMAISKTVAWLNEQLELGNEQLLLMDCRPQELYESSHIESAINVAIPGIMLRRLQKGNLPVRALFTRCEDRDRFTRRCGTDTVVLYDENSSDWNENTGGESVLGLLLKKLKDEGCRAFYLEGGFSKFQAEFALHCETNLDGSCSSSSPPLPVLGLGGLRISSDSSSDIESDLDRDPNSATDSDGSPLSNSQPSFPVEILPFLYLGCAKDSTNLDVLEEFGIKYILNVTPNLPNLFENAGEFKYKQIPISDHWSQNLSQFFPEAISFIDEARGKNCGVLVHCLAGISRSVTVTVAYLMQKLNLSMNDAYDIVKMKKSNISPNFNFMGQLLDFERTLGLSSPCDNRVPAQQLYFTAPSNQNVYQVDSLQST

[11] = molecular target: Heat shock cognate 71 kDa protein (Homo sapiens, UniProt P11142); assay: In Vitro Hsc70 Dose Response Fluorescence Polarization Assay. [Related pubchem assays: 1072 ]
Chain of Heat shock cognate 71 kDa protein (P11142 whole entry): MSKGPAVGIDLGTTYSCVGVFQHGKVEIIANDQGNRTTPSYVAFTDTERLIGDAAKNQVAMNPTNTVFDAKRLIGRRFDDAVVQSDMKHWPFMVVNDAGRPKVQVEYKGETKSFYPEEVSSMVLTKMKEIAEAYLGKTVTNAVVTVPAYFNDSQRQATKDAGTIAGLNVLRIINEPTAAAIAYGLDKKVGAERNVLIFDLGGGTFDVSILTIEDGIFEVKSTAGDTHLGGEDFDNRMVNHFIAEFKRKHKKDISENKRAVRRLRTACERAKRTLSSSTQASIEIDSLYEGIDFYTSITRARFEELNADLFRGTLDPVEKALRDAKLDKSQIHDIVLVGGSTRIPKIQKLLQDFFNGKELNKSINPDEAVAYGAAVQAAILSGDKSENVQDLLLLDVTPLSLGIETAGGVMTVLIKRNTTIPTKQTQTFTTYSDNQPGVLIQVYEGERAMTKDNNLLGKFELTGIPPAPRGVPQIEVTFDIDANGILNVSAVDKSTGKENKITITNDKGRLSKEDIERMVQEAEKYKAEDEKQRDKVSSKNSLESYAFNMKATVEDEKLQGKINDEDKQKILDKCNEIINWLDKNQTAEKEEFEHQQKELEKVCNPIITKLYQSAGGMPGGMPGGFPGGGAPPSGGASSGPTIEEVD

[12] = molecular target: Glyceraldehyde-3-phosphate dehydrogenase (Homo sapiens, UniProt P04406)
[13] = molecular target: T6, Tyrosine-protein phosphatase non-receptor type 7 (Homo sapiens, UniProt P35236); format: functional
T6 sequence (P35236 whole entry): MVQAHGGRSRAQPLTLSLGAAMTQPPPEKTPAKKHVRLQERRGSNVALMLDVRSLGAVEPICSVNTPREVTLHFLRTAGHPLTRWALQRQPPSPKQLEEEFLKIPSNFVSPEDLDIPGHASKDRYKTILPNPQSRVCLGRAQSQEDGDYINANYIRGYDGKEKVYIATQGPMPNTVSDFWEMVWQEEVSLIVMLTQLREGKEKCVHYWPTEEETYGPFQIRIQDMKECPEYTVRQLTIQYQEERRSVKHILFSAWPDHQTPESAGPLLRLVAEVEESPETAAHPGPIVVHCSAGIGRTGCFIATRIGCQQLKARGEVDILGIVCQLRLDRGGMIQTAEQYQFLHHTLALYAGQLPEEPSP

[14] = molecular target: T3, Heat shock 70 kDa protein 1A; assay: Hsp70 inhibitors, SAR follow-up, biochemical, fluorescence polarization (AID 1072)
[15] = molecular target: T5, Dual specificity protein phosphatase 6; format: functional
HEK293 = assay: Fluorescence-based counterscreen for potentiators or agonists of NPY-Y2: cell-based high-throughput dose response assay to identify inhibitors of cyclic nucleotide gated ion channel (CNGC) activity. In this assay, the parental HEK293 cell line transfected with a cyclic-nucleotide gated ion channel (CNGC)-based cAMP sensor is used to measure inhibition of isoproterenol-induced CNGC activity by test compound.; format: functional; conditions: Homo sapiens;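 note: stimulus is 1 µM isoproterenol at EC100 plus PDE inhibitor Ro 20-1724 at 25 µM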
[16] = molecular target: Neuropeptide Y receptor type 2 (Homo sapiens, UniProt P49146); assay: Fluorescence-based cell-based high-throughput dose response assay for agonists of NPY-Y2. [Related pubchem assays: 1703 (Screening assay (CNGC inhibitors).), 1359 (Screening assay (NPY-Y2 potentiators or agonists).), 1304 (Screening assay (NPY-Y1 potentiators or agonists).), 1710 (Screening assay (NPY-Y2 agonists).), 1791 (Summary AID.)]; format: functional
[17] = cytotoxicity toward NIH3T3 fibroblasts, dose response, counter-screen, cell-based, ATP luminescence, mouse fibroblasts (AID 2010); format: functional;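 note: cells exposed to compound for about 90 hours before reading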
[18] = inhibitors of intracellular T. cruzi replication, confirmation, NIH3T3 host cells, beta-gal luminescence (AID 2044); format: functional, cell-based;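 note: intracellular parasites grown in NIH/3T3 mouse fibroblasts as host cells; luminescent beta-galactosidase reporter signal from transgenic T. cruzi replicating inside host cells; inhibitors lower the luminescence signal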
[19] = molecular target: Neuropeptide Y receptor type 1 (Homo sapiens, UniProt P25929); assay: Fluorescence-based counterscreen for agonists of NPY-Y2: cell-based high-throughput dose response assay for agonists of NPY-Y1.; format: functional
[20] = CEM21 lymphoblast cell cytotoxicity, dose response, cytotoxicity control for viral fusion inhibitor project, CellTiter-Glo luminescence, cherry-picked (AID 652042); format: functional, cell-based;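 note: potency for signal decrease meaning cytotoxicity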
[21] = off-target signal loss in HeLa-CEM21 co-culture – HeLa F-luc CTL cells, cherry-picked, counter-screen for HIV-1 Env fusion inhibitor project, dose response (AID 652040); format: functional, cell-based;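 note: potency for signal decrease marking cytotoxic or nonspecific inhibition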
INS1 = assay: beta cell apoptosis inhibitors, cytokine rescue, dose response, luminescence, retest (AID 449756); format: functional, cell-based; conditions: Rattus norvegicus;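 note: cell death triggered by IL-1 beta plus TNF-alpha plus IFN-gamma mixture; protective hits raise ATP signal compared with cytokine alone wells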
[22] = ZM109 Env clade C HIV-1 fusion inhibitors, dose response, HeLa effector, CEM target cells, luciferase, cherry-pick (AID 652058); format: functional, cell-based
[23] = inhibitors of HIV Env-driven cell fusion, dose response, cherry-pick (AID 652057); format: functional, cell-based
[24] = Luminescence-based counterscreen assay for KLF5 inhibitors: dose response cell-based high throughput screening assay to identify cytotoxic compounds using the IEC-6 intestinal epithelial cell line. [Related pubchem assays: 1700 (Primary screen.), 1834 (Confirmation screen.), 1858 (Summary AID.), 1905 (Counterscreen.)]; format: functional
[25] = Counterscreen for AddAB inhibitors: absorbance-based bacterial cell-based high throughput dose response assay for inhibitors of bacterial viability. [Related pubchem assays (depositor defined):AID435030, AID449728, AID449731, AID488942, AID488955, AID488956]; format: functional
[26] = Luminescence Cell-Based Dose Retest to Confirm Inhibitors of Cancer Stem Cells. [Related pubchem assays (depositor defined):AID2717, AID2721]; format: functional; conditions: Homo sapiens
Exodeoxyribonuclease V = Exodeoxyribonuclease V (Escherichia coli (strain K12), UniProt P04993+P07648+P08394); assay: E. coli RecBCD inhibitors, dose response, counter-screen for AddAB inhibitor project, absorbance, V66 E. coli, mutant T4 phage (AID 492957); format: functional, cell-based, Escherichia coli str. K-12 substr. MG1655
Chain of Exodeoxyribonuclease V (P04993 whole entry, the tested form may be a part): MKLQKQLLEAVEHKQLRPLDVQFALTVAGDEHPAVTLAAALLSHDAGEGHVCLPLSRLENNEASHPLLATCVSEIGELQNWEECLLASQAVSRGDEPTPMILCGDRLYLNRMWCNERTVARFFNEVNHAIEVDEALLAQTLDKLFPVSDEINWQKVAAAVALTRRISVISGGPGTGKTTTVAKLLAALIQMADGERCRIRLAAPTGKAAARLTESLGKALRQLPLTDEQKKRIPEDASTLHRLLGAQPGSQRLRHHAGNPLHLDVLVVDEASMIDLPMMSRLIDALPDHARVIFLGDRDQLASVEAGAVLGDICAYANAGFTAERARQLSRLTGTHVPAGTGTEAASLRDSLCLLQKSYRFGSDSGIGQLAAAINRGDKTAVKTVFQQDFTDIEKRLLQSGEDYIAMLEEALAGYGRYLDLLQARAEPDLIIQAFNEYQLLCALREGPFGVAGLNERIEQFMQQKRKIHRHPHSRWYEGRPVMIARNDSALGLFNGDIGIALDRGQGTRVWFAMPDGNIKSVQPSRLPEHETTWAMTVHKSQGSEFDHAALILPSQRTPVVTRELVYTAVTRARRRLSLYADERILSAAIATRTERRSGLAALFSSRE
Chain of Exodeoxyribonuclease V (P07648 whole entry, the tested form may be a part): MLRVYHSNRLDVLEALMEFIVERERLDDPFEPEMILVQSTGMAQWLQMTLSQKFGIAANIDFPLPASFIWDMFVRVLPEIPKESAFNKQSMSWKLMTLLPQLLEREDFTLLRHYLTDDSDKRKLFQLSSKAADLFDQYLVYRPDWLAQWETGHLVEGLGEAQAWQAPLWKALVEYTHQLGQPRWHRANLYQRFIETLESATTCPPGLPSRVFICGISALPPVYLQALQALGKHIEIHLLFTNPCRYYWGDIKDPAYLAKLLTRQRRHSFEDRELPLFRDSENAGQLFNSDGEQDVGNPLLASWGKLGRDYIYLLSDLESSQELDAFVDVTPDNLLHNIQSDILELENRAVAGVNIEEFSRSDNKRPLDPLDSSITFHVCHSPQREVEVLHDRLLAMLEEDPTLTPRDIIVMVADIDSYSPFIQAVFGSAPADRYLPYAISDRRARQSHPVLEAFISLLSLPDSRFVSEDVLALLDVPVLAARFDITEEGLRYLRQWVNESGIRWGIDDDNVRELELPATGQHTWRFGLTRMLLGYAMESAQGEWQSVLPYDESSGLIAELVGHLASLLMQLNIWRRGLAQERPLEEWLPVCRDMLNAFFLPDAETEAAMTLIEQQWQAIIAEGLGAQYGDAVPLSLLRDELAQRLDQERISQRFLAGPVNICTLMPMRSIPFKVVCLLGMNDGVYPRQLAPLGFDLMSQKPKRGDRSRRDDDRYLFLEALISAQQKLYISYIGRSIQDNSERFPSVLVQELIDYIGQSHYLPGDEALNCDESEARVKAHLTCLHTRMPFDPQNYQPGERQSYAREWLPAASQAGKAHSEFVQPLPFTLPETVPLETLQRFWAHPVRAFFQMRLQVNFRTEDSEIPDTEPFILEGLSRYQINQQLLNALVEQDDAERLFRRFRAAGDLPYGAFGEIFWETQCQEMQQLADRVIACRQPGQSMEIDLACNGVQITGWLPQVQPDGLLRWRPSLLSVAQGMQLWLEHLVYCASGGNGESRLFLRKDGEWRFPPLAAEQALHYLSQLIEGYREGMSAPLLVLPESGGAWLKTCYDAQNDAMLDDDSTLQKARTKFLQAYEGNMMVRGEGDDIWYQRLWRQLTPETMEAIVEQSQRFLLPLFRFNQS
Chain of Exodeoxyribonuclease V (P08394 whole entry, the tested form may be a part): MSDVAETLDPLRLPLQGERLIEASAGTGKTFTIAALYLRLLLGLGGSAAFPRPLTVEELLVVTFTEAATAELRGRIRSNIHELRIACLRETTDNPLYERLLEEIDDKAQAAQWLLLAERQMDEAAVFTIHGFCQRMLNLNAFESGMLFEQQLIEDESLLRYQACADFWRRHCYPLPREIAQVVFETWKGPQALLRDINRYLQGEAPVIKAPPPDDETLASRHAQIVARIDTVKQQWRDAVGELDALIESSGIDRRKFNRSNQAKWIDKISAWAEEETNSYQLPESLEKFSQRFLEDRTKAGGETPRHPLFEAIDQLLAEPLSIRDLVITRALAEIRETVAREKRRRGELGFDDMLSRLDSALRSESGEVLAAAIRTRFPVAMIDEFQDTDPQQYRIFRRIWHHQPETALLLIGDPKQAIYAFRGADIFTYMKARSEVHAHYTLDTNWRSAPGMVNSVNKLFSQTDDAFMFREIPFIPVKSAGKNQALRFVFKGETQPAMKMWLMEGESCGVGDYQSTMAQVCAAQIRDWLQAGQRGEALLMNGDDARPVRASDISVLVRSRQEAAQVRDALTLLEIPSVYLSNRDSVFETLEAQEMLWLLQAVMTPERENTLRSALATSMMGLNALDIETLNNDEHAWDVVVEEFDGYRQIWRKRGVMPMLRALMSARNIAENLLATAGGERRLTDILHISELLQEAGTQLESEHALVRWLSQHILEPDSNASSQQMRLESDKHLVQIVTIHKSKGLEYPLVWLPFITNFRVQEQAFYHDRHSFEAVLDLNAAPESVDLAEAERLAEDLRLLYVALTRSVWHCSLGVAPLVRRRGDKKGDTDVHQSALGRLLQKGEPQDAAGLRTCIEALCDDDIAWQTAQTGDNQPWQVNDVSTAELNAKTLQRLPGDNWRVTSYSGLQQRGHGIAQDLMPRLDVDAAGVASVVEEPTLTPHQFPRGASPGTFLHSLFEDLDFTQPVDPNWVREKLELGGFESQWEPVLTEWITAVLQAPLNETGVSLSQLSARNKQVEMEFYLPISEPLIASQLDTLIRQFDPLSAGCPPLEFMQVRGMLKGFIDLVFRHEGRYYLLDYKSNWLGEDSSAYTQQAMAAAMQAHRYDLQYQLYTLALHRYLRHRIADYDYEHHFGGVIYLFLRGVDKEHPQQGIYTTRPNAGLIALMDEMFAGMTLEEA

[27] = inhibitors of clade B AD8 Env fusion, dose response, cell-based, cherry-pick (AID 652062); format: functional;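 note: luciferase signal from cell-cell fusion driven by HIV-1 clade B AD8 Env; potency is for inhibitors of fusion seen as a drop in luminescence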
[28] = molecular target: Heat shock protein HSP 90-alpha (Homo sapiens, UniProt P07900); format: functional, organism-based

Cc1ccc2cc(C3CC(c4ccco4)=NN3S(=O)(=O)c3ccccc3)c(Cl)nc2c1 (stereo unspecified)
IC50 [1]: 40.7 µM (active)

OC1c2cc(Cl)cc(Cl)c2N=C2CCCN21 (stereo unspecified)
EC50 (Kallikrein-7): 48.5 µM (inactive)
IC50 [2]: < 260 nM (active)
CC50 (Vero): > 200 µM (active)

O=C(Nc1ccc(N2CCN(C(=O)c3ccccc3)CC2)cc1)c1ccc([N+](=O)[O-])o1
IC50 [3]: 12.7 µM (not active)
AC50 [4]: 17.9 µM (active)
EC50 [5]: 8.79 µM (active)
IC50 [6]: 1.64 µM (active)
CC50 (HeLa): 7.65 µM (active)
AC50 (Paired box protein Pax-8): 3.92 µM (active)

CC(=O)Nc1cc2c(cc1C(C)=O)OCCO2
IC50 [7]: > 100 µM (not active)
IC50 [8]: > 100 µM (not active)

COc1cc(OC)c(C(c2cc3c(cc2O)OCO3)N2CCOCC2)c(OC)c1 (stereo unspecified)
IC50 [9]: > 40 µM (not active)

O=C(CCCCCn1c(=S)[nH]c2ccccc2c1=O)N1CCC(N(Cc2ccccc2)c2ccccc2)CC1
IC50 (Estrogen receptor): 120 nM (not active)

NC(=O)c1cccc2c1NC(C(=O)O)C1CC=CC21 (stereo unspecified)
IC50 [10]: 58.6 µM (active)
IC50 [11]: 86 µM (active)
IC50 [12]: > 100 µM (not active)
IC50 [13]: 3 µM (active)
IC50 [14]: 10.4 µM (active)
IC50 [15]: 55.5 µM (active)

Nc1c(-c2ccccc2)c(CSc2nc3ccccc3[nH]2)nn1-c1ccc(Cl)cc1
EC50 (HEK293): > 35.4 µM (not active)
EC50 [16]: 6.65 µM (active)
EC50 [17]: 12.2 µM (active)
EC50 [18]: 595 nM (active)
EC50 [19]: 7.41 µM (active)

COc1cccc(/C=N/Nc2ncc(C(F)(F)F)cc2Cl)c1O
AC50 [20]: 2.15 µM (active)
AC50 [21]: 17.4 µM (active)
AC50 (INS1): 584 nM (active)
AC50 [22]: 1.45 µM (active)
AC50 [23]: 1.37 µM (active)
IC50 [24]: 26.8 µM (not active)
IC50 [25]: 98.2 µM (inactive)
AC50 [26]: 469 nM (active)
IC50 (Exodeoxyribonuclease V): > 119 µM (inactive)
AC50 [27]: 7.04 µM (active)
AC50 [28]: 5.59 µM (active)
